In patent publication US5145954A, “Derivatives of alphaphenylacrylic acid and their use in agriculture” (Imperial Chemical Industries PLC, priority 1986, dated 1992):

What was measured:
Assay type in all cases: in vivo
Plasmopara viticola = experiment: foliar fungal disease test on plants, Plasmopara viticola (vine); conditions: 100 ppm foliar spray plus root drench ca. 40 ppm a.i./dry soil; protectant
Venturia inaequalis = experiment: foliar fungal disease test on plants, Venturia inaequalis (apple); conditions: 100 ppm foliar spray plus root drench ca. 40 ppm a.i./dry soil; protectant
Tomato = experiment: whole plant screen for plant growth regulating activity, tomato; design: key to greening effect, TO* / greening effect, TO^+ / apical damage, TO* / tillering or side shooting, TO* / apical damage, TO^+ / tillering or side shooting, TO^+: Greening effect; Apical damage; Tillering or side shooting; conditions: after 2-6 weeks
Protocol: (§1) These compounds were tested on a whole plant screen for plant growth regulating activity against six species of plant. The plant species used in this screen are presented in Table VIII with the leaf stage at which they were sprayed.
(§2) A formulation of each chemical was applied at 4000 ppm (4 kg/ha in a 1000 1/ha field volume) using a tracksprayer and a SS8004E (Teejet) nozzle. Additional tests were done on tomatoes at 2000 and 500 ppm.
(§3) After spraying, the plants were grown in a glasshouse with 25° C. day/22° C. night temperatures. The exception to this were the temperate cereals, wheat and barley which were grown in 13°-16° C. day/11°-13° C. night temperatures. Supplementary lighting was supplied when necessary to provide an average photoperiod of 16 hours (14 hours minimum).
(§4) After 2-6 weeks in the glasshouse, depending on species and time of year, the plants were visually assessed for morphological characteristics against a control plant sprayed with a blank formulation.
To- TO Ailsa 2-21/2 leaves

Pyricularia oryzae = conditions: 100 ppm foliar spray plus root drench ca. 40 ppm a.i./dry soil; protectant
Erysiphe graminis = experiment: foliar fungal disease test on plants, Erysiphe graminis (barley); conditions: 100 ppm foliar spray plus root drench ca. 40 ppm a.i./dry soil; inoculated 24 hours before treatment
Puccinia recondita = experiment: foliar fungal disease test on plants, Puccinia recondita (wheat); conditions: 100 ppm foliar spray plus root drench ca. 40 ppm a.i./dry soil; protectant
Cercospora arachidicola = experiment: foliar fungal disease test on plants, Cercospora arachidicola (peanut); conditions: 100 ppm foliar spray plus root drench ca. 40 ppm a.i./dry soil; protectant
Wheat = experiment: whole plant screen for plant growth regulating activity, wheat; conditions: 4000 ppm (4 kg/ha), after 2-6 weeks
Protocol: as §1, §2, §3, §4
Wheat WW Timmo 1-1.5 leaves

Rice = experiment: whole plant screen for plant growth regulating activity, rice; conditions: 4000 ppm (4 kg/ha), after 2-6 weeks
Protocol: as §1, §2, §3, §4
Rice RC Ishikari 2-21/2 leaves

Maize = experiment: whole plant screen for plant growth regulating activity, maize; design: key: Greening effect; Apical damage; Tillering or side shooting; conditions: 4000 ppm (4 kg/ha), after 2-6 weeks
Protocol: as §1, §2, §3, §4

[1] = system: Tetranychus urticae (spider mites - ova); experiment: insecticidal test TUe, spider mites ova, contact; conditions: 500 ppm, French bean leaf, duration 6
Protocol: (§5) The activity of the compound was determined using a variety of insect, mite and nematode pests. The compound was used in the form of liquid preparations containing from 100 to 500 parts per million (ppm) by weight of the compound. The preparations were made by dissolving the compound in acetone and diluting the solutions with water containing 0.1% by weight of a wetting agent sold under the trade name "SYNPERONIC" NX until the liquid preparations contained the required concentration of the product. "SYNPERONIC" is a Registered Trade Mark.
(§6) The test procedure adopted with regard to each pest was basically the same and comprised supporting a number of the pests on a medium which was usually a host plant or a foodstuff on which the pests feed, and treating either or both the pests and the medium with the preparations. The mortality of the pests was then assessed at periods usually varying from one to seven days after the treatment. […]

Meloidogyne incognita = experiment: nematode test MI, tomato root knot eelworm larvae, semi in-vitro, residual; conditions: 125 ppm, duration 7
Protocol: as §5, §6

Myzus persicae = experiment: insecticidal test MP, aphids, contact; conditions: 500 ppm, Chinese cabbage leaf, duration 3
Protocol: as §5, §6

Nilaparvata lugens = experiment: insecticidal test NL, brown plant hopper nymphs, contact; conditions: 500 ppm, rice plant, duration 3
Protocol: as §5, §6

[2] = system: Tetranychus urticae (spider mites - adult); experiment: insecticidal test TUa, spider mites adult, contact; conditions: 500 ppm, French bean leaf, duration 3
Protocol: as §5, §6

Blattella germanica = experiment: insecticidal test BG, cockroach nymphs, residual; conditions: 500 ppm, plastic pot, duration 3
Protocol: as §5, §6

Spodoptera exigua = experiment: insecticidal test SP, lesser army worm larvae, residual; conditions: 500 ppm, cotton leaf, duration 3
Protocol: as §5, §6

Musca domestica [3] = experiment: whole plant or invertebrate
Protocol: A sample of compound 9 was diluted in 2 mls acetone and made up to a 2000 ppm solution with 0.1% aqueous synperonic solution. The solution (1 ml) was then sprayed directly onto twenty mixed sex houseflies held in a drinking cup. Immediately after spraying the cups were inverted and left to dry. An assessment of knockdown was made when the cups were righted 15 minutes later. The flies were then provided with a 10% sucrose solution on a cotton wool pad, and held for 48 hours in a holding room conditioned at 25° C. and 65% relative humidity before a mortality assessment was made.

Musca domestica [4] = experiment: insecticidal test MD, houseflies adults, contact; conditions: 500 ppm, cotton wool/sugar, duration 1
Protocol: as §5, §6

Diabrotica balteata = experiment: insecticidal test DB, rootworm larvae, residual; conditions: 500 ppm, filter paper/maize seed, duration 3
Protocol: as §5, §6

Heliothis virescens = experiment: insecticidal test HV, tobacco budworm larvae, residual; conditions: 500 ppm, cotton leaf, duration 3
Protocol: as §5, §6

SMILES | disease control grade, PLASMOPARA VITICOLA (Vine) (Plasmopara viticola) | disease control grade, VENTURIA INAEQUALIS (Apple) (Venturia inaequalis) | greening effect, TO^+ (Tomato; 500 ppm) | retardation, TO^+ (Tomato; 500 ppm) | retardation, TO* (Tomato; 2000 ppm) | disease control grade, P[…] (Rice) (Pyricularia oryzae) | disease control grade, ERYSIPHE GRAMINIS (Barley) (Erysiphe graminis) | disease control grade, PUCCINIA RECONDITA (Wheat) (Puccinia recondita) | disease control grade, CERCOSPORA ARACHIDICOLA (Peanut) (Cercospora arachidicola) | further results
COC(=O)/C(=C/SC)c1ccccc1Oc1ccccc1 [1 of Table II] | 4 | 4 | G | 1 (10-30%) | 1 (10-30%) | 2 (6-25% of disease on untreated plants) | 3 (trace - 5% of disease on untreated plants) | 4 | 0 (60-100% of disease on untreated plants) | retardation, WW (Wheat): 1 (10-30%)
COC(=O)/C(=C/SC)c1ccccc1 [1 of Table I] | 0 (60-100% of disease on untreated plants) | 0 (60-100% of disease on untreated plants) | – | 1 (10-30%) | 1 (10-30%) | 1 (26-59% of disease on untreated plants) | 0 (60-100% of disease on untreated plants) | 0 (60-100% of disease on untreated plants) | 0 (60-100% of disease on untreated plants) | retardation, RC (Rice): 2 (21-60%)
COC(=O)/C(=C\SC)c1ccccc1 [2 of Table I] | 1 (26-59% of disease on untreated plants) | 0 (60-100% of disease on untreated plants) | G | 2 (21-60%) | 1 (10-30%) | 0 (60-100% of disease on untreated plants) | 0 (60-100% of disease on untreated plants) | 0 (60-100% of disease on untreated plants) | 0 (60-100% of disease on untreated plants) | greening effect, TO* (Tomato; 2000 ppm): G; retardation, RC (Rice): 1 (10-30%)
COC(=O)/C(=C/SC)c1ccccc1/C=C/c1ccccc1 [9 of Table I] | 0 (60-100% of disease on untreated plants) | 4 | G | – | – | 4 | 0 (60-100% of disease on untreated plants) | 3 (trace - 5% of disease on untreated plants) | 1 (26-59% of disease on untreated plants) | apical damage, TO^+ (Tomato; 500 ppm): A; tillering or side shooting, TO^+ (Tomato; 500 ppm): T; apical damage, TO* (Tomato; 2000 ppm): A; greening effect, TO* (Tomato; 2000 ppm): G; tillering or side shooting, TO* (Tomato; 2000 ppm): T
COC(=O)/C(=C\SC)c1ccccc1/C=C/c1ccccc1 [10 of Table I] | 4 | 4 | – | – | – | 3 (trace - 5% of disease on untreated plants) | 0 (60-100% of disease on untreated plants) | 2 (6-25% of disease on untreated plants) | 4 | –
COC(=O)/C(=C/SC)c1ccccc1CCc1ccc(F)cc1 [96 of Table I] | 0 (60-100% of disease on untreated plants) | 3 (trace - 5% of disease on untreated plants) | G | – | 1 (10-30%) | 0 (60-100% of disease on untreated plants) | 0 (60-100% of disease on untreated plants) | 0 (60-100% of disease on untreated plants) | 0 (60-100% of disease on untreated plants) | apical damage, MZ (Maize): A; greening effect, MZ (Maize): G
COC(=O)/C(=C/SC)c1ccccc1/C=C/c1ccccc1 [Compound 9 of Table I] | – | – | – | – | – | – | – | – | – | grading of mortality, TUE [1]: 0 (less than 50% mortality); grading of root knot reduction, MI* (Meloidogyne incognita): 9 (70-100% root knot reduction as compared to an untreated plant for Meloidogyne incognita); grading of mortality, MP (Myzus persicae): 0 (less than 50% mortality); grading of mortality, NL (Nilaparvata lugens): 0 (less than 50% mortality); grading of mortality, TUA [2]: 0 (less than 50% mortality); grading of mortality, BG (Blattella germanica): 0 (less than 50% mortality); grading of mortality, SP (Spodoptera exigua): 0 (less than 50% mortality); knockdown (Musca domestica [3]; 1 ml of 2000 ppm solution sprayed on twenty houseflies, assessed 15 minutes later): 88%; mortality at 2000 ppm (Musca domestica [3]; Musca domestica, topical, 48 h, read-out: kill): 15%; grading of mortality, MD (Musca domestica [4]): 5 (50-79% mortality); grading of mortality, DB (Diabrotica balteata): 5 (50-79% mortality); grading of mortality, HV (Heliothis virescens): 0 (less than 50% mortality)
